# Measured values reported in paper PMC6044894 (ACS Omega, 2017).
# Numbered stars: 1 amine (or outer) side, 2 acyl side, 3 side chain; on linkers, the order of the positions; unused ones are H or OH. Bridge positions count the residues as written; N and C are the ends. Peptide text beside a SMILES is read from it. I, II: the chains in the order shown. * marks the point of attachment. Suberoyl = O=C(CCCCCCC(=O)[*:2])[*:1]; Octanoyl = CCCCCCCC(=O)*
# Columns and labels:
# Y4R [1] = target: T1, Y4R (Homo sapiens, UniProt P50391); assay: Aequorin calcium mobilization assay on CHO-hY4-Gqi5-mtAEQ cells; type: cell-based; details: for aequorin assay intrinsic activity α: relative to 1 μM hPP (α = 1.0)
# Y4R [2] = target: T1, Y4R; assay: β-Arrestin 1 recruitment assay on HEK293T-ARRB1-Y4R cells; type: cell-based; details: for β-arrestin 1 assay intrinsic activity α: relative to 1 μM hPP (α = 1.0)
# Y4R [3] = target: T1, Y4R; assay: β-Arrestin 2 recruitment assay on HEK293T-ARRB2-Y4R cells; type: cell-based; details: for β-arrestin 2 assay intrinsic activity α: relative to 1 μM hPP (α = 1.0)
# Y1R = target: T2, Y1R (Homo sapiens, UniProt P25929); assay: Radioligand competition binding assay at Y1R with 46 using MCF-7-hY1 cells
# T2 sequence (P25929 1-384): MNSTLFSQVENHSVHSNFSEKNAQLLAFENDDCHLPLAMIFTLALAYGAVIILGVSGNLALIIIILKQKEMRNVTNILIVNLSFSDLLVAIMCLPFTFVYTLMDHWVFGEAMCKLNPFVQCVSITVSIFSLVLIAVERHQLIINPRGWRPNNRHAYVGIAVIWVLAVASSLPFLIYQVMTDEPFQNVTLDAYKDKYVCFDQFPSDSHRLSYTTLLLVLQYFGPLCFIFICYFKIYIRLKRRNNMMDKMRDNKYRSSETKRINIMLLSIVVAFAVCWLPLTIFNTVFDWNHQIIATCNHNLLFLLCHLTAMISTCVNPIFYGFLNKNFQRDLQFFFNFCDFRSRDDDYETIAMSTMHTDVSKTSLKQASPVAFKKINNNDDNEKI
# Y2R = target: T3, Y2R (Homo sapiens, UniProt P49146); type: binding
# T3 sequence (P49146 1-381): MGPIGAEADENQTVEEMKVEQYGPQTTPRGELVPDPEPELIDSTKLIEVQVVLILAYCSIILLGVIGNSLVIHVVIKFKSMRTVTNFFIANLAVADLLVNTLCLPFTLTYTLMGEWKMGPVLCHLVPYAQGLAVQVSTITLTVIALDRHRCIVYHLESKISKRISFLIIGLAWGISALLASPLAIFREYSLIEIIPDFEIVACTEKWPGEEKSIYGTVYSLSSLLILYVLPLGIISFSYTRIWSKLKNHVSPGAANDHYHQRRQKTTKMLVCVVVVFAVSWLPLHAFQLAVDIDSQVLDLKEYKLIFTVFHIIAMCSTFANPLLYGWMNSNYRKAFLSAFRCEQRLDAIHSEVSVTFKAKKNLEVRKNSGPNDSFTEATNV
# Y4R [4] = target: T1, Y4R; assay: biochemical; type: binding
# Y5R = target: T4, Y5R (Homo sapiens, UniProt Q15761); type: binding
# T4 sequence (Q15761 1-445): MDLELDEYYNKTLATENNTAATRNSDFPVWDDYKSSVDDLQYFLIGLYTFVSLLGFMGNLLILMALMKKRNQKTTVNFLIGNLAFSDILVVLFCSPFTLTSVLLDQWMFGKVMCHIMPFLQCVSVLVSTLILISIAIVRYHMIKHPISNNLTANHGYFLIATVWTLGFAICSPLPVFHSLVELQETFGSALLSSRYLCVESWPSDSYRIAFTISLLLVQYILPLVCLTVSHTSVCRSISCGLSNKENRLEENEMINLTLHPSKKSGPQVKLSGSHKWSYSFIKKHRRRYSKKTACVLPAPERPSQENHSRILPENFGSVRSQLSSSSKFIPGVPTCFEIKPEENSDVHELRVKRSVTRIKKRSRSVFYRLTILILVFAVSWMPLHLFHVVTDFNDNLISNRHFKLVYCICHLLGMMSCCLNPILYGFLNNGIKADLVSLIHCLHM
# T1 sequence (P50391 whole entry): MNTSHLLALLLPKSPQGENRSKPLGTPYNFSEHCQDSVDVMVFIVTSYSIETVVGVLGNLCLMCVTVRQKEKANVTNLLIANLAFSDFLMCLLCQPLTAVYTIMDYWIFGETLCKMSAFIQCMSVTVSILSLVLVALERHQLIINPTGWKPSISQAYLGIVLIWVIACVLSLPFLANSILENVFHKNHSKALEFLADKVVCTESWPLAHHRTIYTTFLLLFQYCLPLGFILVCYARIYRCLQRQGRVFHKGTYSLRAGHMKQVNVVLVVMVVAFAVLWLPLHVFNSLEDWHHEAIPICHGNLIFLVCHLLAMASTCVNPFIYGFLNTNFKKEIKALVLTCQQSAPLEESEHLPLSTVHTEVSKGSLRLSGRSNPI
compound,measurement,setting,value
"CC(C)C[C@H](NC(=O)[C@H](CCCNC(=N)N)NC(=O)[C@H](Cc1ccc(O)cc1)NC(=O)CCCCCCC(=O)N[C@@H](Cc1ccc(O)cc1)C(=O)N[C@@H](CCCNC(=N)N)C(=O)N[C@@H](CC(C)C)C(=O)N[C@@H](CCCNC(=N)N)C(=O)N[C@@H](Cc1ccc(O)cc1)C(N)=O)C(=O)N[C@@H](CCCNC(=N)N)C(=O)N[C@@H](Cc1ccc(O)cc1)C(N)=O [Compound 2, octanedioyl-bis(Tyr-Arg-Leu-Arg-Tyr-amide), reference compound] (I: YRLRY-NH2 / II: YRLRY-NH2; linker I:N-II:N via Suberoyl)",aequorin assay intrinsic activity α,Y4R [1],0.73
"CCCCCCCC(=O)N[C@@H](Cc1ccc(O)cc1)C(=O)N[C@@H](CCCNC(=N)N)C(=O)N[C@@H](CC(C)C)C(=O)N[C@@H](CCCNC(=N)N)C(=O)N[C@@H](Cc1ccc(O)cc1)C(N)=O [Compound 33, Octanoyl-Tyr-Arg-Leu-Arg-Tyr-amide Bis(hydrotrifluoroacetate)] (Octanoyl-YRLRY-NH2)",EC50,Y4R [2],2.2 ± 0.13 µM
same,β-arrestin 1 assay intrinsic activity α,Y4R [2],0.56
same,EC50,Y4R [3],1.79 ± 1.07 µM
same,β-arrestin 2 assay intrinsic activity α,Y4R [3],0.61
same,EC50,Y4R [1],2.05 ± 0.084 µM
same,aequorin assay intrinsic activity α,Y4R [1],0.44
same,Ki,Y1R,0.589 ± 0.12 µM
same,Ki,Y2R,> 5 µM
same,Ki,Y4R [4],0.0569 ± 0.0053 µM
same,increase in Y4R affinity compared to parent compound 3,Y4R [4]; ratio of Ki values,almost six
same,Ki,Y5R,3.44 ± 0.21 µM
"CC(=O)N[C@@H](CCCNC(=N)N)C(=O)N[C@@H](Cc1ccc(O)cc1)C(=O)N[C@@H](CCCNC(=N)N)C(=O)N[C@@H](CC(C)C)C(=O)N[C@@H](CCCNC(=N)N)C(=O)N[C@@H](Cc1ccc(O)cc1)C(N)=O [Compound 36, Ac-Arg-Tyr-Arg-Leu-Arg-Tyr-amide Tris(hydrotrifluoroacetate)]",EC50,Y4R [2],0.187 ± 0.04 µM
same,β-arrestin 1 assay intrinsic activity α,Y4R [2],0.51
same,EC50,Y4R [3],0.14 ± 0.045 µM
same,β-arrestin 2 assay intrinsic activity α,Y4R [3],0.54
same,EC50,Y4R [1],0.303 ± 0.068 µM
same,aequorin assay intrinsic activity α,Y4R [1],0.78
same,Ki,Y1R,1.18 ± 0.38 µM
same,Ki,Y2R,> 5 µM
same,Ki,Y5R,> 5 µM
"Ac-YRLRY-NH2 [Compound 3, Ac-Tyr-Arg-Leu-Arg-Tyr-amide, reference compound]",Ki,Y1R,> 5 µM
same,Ki,Y2R,> 5 µM
same,Ki,Y5R,> 5 µM
